According to PMC8552062, “Contributions of UDP-Glucuronosyltransferases to Human Hepatic and Intestinal Metabolism of Ticagrelor and Inhibition of UGTs and Cytochrome P450 Enzymes by Ticagrelor and its Glucuronidated Metabolite” (Frontiers in Pharmacology, 2021):

Key:
Type in all cases: in vitro ADME
Parameters in all cases: tissue XenoTech LLC; host or cells: pooled human liver microsomes
UGT1A3 = molecular target: T1, UGT1A3 (Homo sapiens, UniProt P35503); test: UGT1A3 inhibition in HLM (chenodeoxycholic acid glucuronidation); conditions: for IC50: UGT1A3, chenodeoxycholic acid 24-acyl-β-D-glucuronide formation in HLM
T1 sequence (P35503 29-534): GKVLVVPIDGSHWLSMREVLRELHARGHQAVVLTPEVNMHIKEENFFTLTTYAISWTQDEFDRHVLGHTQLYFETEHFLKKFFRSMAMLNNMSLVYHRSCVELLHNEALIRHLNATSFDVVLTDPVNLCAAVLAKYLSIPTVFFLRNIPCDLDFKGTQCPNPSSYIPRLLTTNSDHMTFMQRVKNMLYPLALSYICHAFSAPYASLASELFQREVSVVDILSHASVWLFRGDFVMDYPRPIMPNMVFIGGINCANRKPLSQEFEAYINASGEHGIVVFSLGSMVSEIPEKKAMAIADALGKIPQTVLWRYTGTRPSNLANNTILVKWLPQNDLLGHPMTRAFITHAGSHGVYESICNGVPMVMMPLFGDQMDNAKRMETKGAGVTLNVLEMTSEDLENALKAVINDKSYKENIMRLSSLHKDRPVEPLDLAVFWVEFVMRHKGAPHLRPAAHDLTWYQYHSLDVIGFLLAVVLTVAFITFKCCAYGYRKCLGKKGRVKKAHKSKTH
Protocol: (§1) To assess drug-drug interactions (DDIs) potential caused by ticagrelor and ticagrelor-O-Glu through the inhibition of the major human UGTs enzymes, selective UGT probe substrates were co-incubated with ticagrelor or ticagrelor-O-Glu in HLM. The formation of metabolites, SN-38 glucuronide, chenodeoxycholic acid 24-acyl-β-D-glucuronide, trifluoperazine N-glucuronide, N-Acetyl serotonin glucuronide, mycophenolic acid glucuronide and 3′-azide-3′-deoxythymidine β-D-glucuronide, which could reflect the enzyme activities of UGT1A1, UGT1A3, UGT1A4, UGT1A6, UGT1A9 and UGT2B7, respectively, were quantified using LC-MS/MS. Three different concentrations of ticagrelor or ticagrelor-O-Glu (1, 10 and 100 μM) were added to the incubation system in the presence of selective UGT probe substrates (SN-38, chenodeoxycholic acid, trifluoperazine, N-Acetyl serotonin, mycophenolic acid and 3′-azide-3′-deoxythymidine), respectively. The assays were performed as described above. The control was treated with a vehicle solvent only. A triple determination was performed.
(§2) The percent inhibition relative to the control was calculated to indicate the UGTs or CYPs inhibition. For inhibition exceeding 50% of the control activity, nonlinear regression analysis was used to estimate the IC50 values using the GraphPad Prism 6 (GraphPad Software Inc., CA, United States).

UGT1A6 = molecular target: T2, UGT1A6 (Homo sapiens, UniProt P19224); test: UGT1A6 inhibition in HLM (N-Acetyl serotonin glucuronidation); conditions: for IC50: UGT1A6, N-Acetyl serotonin glucuronide formation in HLM; for inhibition at 100 µM: human, human liver microsomes (HLM), probe N-Acetyl serotonin, HLM, 100 μM test compound
T2 sequence (P19224 27-532): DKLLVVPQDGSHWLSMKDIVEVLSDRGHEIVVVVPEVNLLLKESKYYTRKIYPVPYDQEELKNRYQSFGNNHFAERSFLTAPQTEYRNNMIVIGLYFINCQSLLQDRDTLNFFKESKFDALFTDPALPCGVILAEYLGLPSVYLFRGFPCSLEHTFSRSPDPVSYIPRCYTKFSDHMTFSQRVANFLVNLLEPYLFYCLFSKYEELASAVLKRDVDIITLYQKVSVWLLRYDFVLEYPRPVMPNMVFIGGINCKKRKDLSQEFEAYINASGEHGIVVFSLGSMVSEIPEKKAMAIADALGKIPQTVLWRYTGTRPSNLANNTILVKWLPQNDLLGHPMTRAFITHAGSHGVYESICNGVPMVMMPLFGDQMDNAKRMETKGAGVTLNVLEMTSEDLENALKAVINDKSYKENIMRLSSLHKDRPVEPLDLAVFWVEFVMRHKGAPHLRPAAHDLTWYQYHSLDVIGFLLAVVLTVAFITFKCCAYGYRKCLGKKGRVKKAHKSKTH
Protocol: as §1, §2

UGT2B7 = molecular target: T3, UGT2B7 (Homo sapiens, UniProt P16662); test: UGT2B7 inhibition in HLM (3′-azide-3′-deoxythymidine glucuronidation); conditions: for IC50: UGT2B7, 3′-azide-3′-deoxythymidine β-D-glucuronide formation in HLM; for inhibition at 100 µM: human, human liver microsomes (HLM), probe 3′-azide-3′-deoxythymidine, HLM, 100 μM test compound
T3 sequence (P16662 24-529): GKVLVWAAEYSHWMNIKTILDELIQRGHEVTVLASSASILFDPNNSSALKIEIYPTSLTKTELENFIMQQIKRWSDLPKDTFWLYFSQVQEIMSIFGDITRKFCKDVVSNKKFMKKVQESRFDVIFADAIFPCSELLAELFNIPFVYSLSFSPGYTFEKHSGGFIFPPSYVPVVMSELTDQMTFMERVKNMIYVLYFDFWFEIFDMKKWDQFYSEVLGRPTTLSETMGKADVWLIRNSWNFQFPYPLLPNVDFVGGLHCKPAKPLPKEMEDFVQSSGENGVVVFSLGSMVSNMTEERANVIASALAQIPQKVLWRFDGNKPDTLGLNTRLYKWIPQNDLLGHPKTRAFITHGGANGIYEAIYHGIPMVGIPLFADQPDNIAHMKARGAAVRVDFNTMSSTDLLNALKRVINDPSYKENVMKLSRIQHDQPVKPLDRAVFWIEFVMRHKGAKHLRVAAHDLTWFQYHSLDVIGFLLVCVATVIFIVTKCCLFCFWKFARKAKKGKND
Protocol: as §1, §2

UGT1A4 = molecular target: T4, UGT1A4 (Homo sapiens, UniProt P22310); test: UGT1A4 inhibition in HLM (trifluoperazine N-glucuronidation); conditions: for inhibitory effect on UGT1A4: HLM, 1, 10 and 100 μM; for IC50: UGT1A4, trifluoperazine N-glucuronide formation in HLM
T4 sequence (P22310 29-534): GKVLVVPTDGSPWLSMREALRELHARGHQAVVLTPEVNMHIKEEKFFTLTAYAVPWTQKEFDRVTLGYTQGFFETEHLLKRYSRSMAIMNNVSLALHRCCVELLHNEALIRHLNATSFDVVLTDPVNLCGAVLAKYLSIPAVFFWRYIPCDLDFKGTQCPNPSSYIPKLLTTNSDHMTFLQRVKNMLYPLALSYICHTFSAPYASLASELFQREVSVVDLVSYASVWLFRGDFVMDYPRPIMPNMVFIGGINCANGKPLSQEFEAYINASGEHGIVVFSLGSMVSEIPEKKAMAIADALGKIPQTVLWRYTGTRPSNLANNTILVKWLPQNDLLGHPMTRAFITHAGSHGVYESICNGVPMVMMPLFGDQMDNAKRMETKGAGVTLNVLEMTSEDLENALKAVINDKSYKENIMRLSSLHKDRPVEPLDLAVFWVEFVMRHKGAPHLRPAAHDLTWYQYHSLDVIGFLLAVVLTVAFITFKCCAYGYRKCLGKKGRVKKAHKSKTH
Protocol: as §1, §2

| inhibitory effect on UGT1A3 (UGT1A3; HLM, concentration up to 100 μM) | IC50 (UGT1A3) [µM] | IC50 (UGT1A6) [µM] | inhibition at 100 µM (UGT1A6) [%] | IC50 (UGT2B7) [µM] | inhibition at 100 µM (UGT2B7) [%] | inhibitory effect on UGT1A4 (UGT1A4) | IC50 (UGT1A4) [µM] | inhibition at 100 µM (UGT1A3; human, human liver microsomes (HLM), probe chenodeoxycholic acid, HLM, 100 μM test compound) [%] | SMILES |
| --- | --- | --- | --- | --- | --- | --- | --- | --- | --- |
| no significant inhibitory effects | > 100 | > 100 | 28.5 | > 100 | 30.7 | no significant inhibitory effects | > 100 |  | CCCSc1nc(N[C@@H]2C[C@H]2c2ccc(F)c(F)c2)c2nnn([C@@H]3C[C@H](OCCO[C@@H]4O[C@H](C(=O)O)[C@@H](O)[C@H](O)[C@H]4O)[C@@H](O)[C@H]3O)c2n1 [Ticagrelor-O-Glu, ticagrelor-O-glucuronide] |
|  | > 100 | > 100 | 12.7 | > 100 | 39 | No significant inhibitory effect | > 100 | 24.5 | CCCSc1nc(N[C@@H]2C[C@H]2c2ccc(F)c(F)c2)c2nnn([C@@H]3C[C@H](OCCO)[C@@H](O)[C@H]3O)c2n1 [Ticagrelor] |
